Laboratory results: patent publication US20210347736A1, “CRYSTALLINE FORMS OF A FARNESOID X RECEPTOR AGONIST” (Metacrine, Inc., priority 2018, published 2021)
Entries after “also recorded” stand apart in the source; their conditions may differ.

How the values were obtained:
[1] = biological target: T1, hFXR (Homo sapiens, UniProt Q96RI1); assay: In Vitro FXR Assay (TK hFXR luciferase reporter in transfected CV-1 cells); format: cell-based; conditions: CV-1 cells transfected with hFXR, hRXR, TK-ECRE-luc; 18 hrs incubation; luminescence
T1 construct: expressed in transfected cells; host or cells: CV-1 cells
T1 sequence (Q96RI1 1-486): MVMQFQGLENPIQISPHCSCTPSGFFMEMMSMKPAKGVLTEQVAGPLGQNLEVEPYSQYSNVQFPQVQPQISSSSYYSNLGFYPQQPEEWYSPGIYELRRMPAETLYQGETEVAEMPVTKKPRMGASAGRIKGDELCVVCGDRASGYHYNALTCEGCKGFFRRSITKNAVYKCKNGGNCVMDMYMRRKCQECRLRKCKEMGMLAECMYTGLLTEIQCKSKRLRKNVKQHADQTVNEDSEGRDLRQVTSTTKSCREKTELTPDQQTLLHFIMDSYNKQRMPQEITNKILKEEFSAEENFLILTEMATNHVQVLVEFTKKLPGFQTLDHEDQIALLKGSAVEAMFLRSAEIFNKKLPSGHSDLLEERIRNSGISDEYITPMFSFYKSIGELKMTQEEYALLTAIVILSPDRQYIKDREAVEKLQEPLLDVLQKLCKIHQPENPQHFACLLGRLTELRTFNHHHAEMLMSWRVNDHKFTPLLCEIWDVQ
T1 sequence (P19793 1-462 partner): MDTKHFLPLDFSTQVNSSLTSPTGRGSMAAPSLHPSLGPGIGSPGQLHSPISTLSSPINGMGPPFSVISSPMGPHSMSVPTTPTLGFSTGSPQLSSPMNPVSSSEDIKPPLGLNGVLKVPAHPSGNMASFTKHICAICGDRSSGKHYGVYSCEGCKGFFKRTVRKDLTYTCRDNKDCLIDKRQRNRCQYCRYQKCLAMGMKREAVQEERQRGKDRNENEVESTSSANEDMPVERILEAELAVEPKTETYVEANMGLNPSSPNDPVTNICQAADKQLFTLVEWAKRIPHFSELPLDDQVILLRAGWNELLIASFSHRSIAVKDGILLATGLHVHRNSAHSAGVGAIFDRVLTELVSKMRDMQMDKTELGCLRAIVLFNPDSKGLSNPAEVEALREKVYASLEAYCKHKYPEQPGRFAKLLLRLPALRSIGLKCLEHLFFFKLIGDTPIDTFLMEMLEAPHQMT
Experimental: CV-1 cells were seeded at a density of 2,000,000 cells in a T175 flask with DMEM+10% charcoal double-stripped FBS and incubated at 37° C. in 5% CO2 for 18 h (O/N).
After 18 h of incubation, the medium in the T175 flask was changed with fresh DMEM+10% charcoal super-stripped serum. In a polypropylene tube, 2500 μL OptiMEM (Life Technologies, Cat #31985-062) was combined with expression plasmids for hFXR, hRXR, TK-ECRE-luc and pCMX-YFP. The tube was then briefly vortexed and incubated at room temperature for 5 minutes. Transfection reagent (X-tremeGENE HP from Roche, Cat #06 366 236 001) was added to the OptiMEM/plasmid mixture vortexed and incubated at room temperature for 20 minutes. Following incubation, the transfection reagent/DNA mixture complex was added to cells in the T175 flask and the cells were incubated at 37° C. in 5% CO2 for 18 h (O/N).
Compound 1 was serially diluted in DMSO and added to transfected CV-1 cells. The cells were then incubated for 18 hrs. The next day cells were lysed and examined for luminescence.

[2] = Storage stability of Form 1 for 7 days at elevated humidity (HPLC purity, XRPD); format: physicochemical
Experimental: X-Ray Powder Diffraction patterns were collected on a Bruker D8 diffractometer using Cu Kα radiation (40 kV, 40 mA), 0-20 goniometer, and divergence of V4 and receiving slits, a Ge monochromator and a Lynxeye detector. The instrument was performance checked using a certified Corundum standard (NIST 1976). The software used for data collection was Diffrac Plus XRD Commander v2.6.1 and the data were analysed and presented using Diffrac Plus EVA v15.0.0.0.
Samples were run under ambient conditions as flat plate specimens using powder as received. The sample was gently packed into a cavity cut into polished, zero-background (510) silicon wafer. The sample was rotated in its own plane during analysis. The parameters for data collection were: angular range, 2 to 42° 2θ; step size, 0.05° 2θ; collection time, 0.5 s/step.
Purity analysis was performed on an Agilent HP1100 series system equipped with a diode array detector and using ChemStation software vB.04.03 using the method detailed in Table 4 below:
Further, Form 1 of Compound 1 was unchanged by XRPD after 7 days at 25° C. and 97% RH (see FIG. 6, trace (b)).
Further, Form 1 of Compound 1 was unchanged by XRPD after 7 days at 40° C. and 75% RH (see FIG. 6, trace (c)).

[3] = Gravimetric Vapor Sorption (GVS); format: physicochemical
Experimental: Sorption isotherms were obtained using a SMS DVS Intrinsic moisture sorption analyser, controlled by DVS Intrinsic Control software v1.0.1.2 (or v1.0.1.3). The sample temperature was maintained at 25° C. by the instrument controls. The humidity was controlled by mixing streams of dry and wet nitrogen, with a total flow rate of 200 ml/min The relative humidity was measured by a calibrated Rotronic probe (dynamic range of 1.0-100% RH), located near the sample. The weight change, (mass relaxation) of the sample as a function of % RH was constantly monitored by the microbalance (accuracy ±0.005 mg).
Typically 5-20 mg of sample was placed in a tared mesh stainless steel basket under ambient conditions. The sample was loaded and unloaded at 40% RH and 25° C. (typical room conditions). A moisture sorption isotherm was performed as outlined below (2 scans giving 1 complete cycle). The standard isotherm was performed at 25° C. at 10% RH intervals over a 0-90% RH range. Data analysis was carried out using Microsoft Excel using DVS Analysis Suite v6.2 (or v6.1 or v6.0).
The sample was recovered after completion of the isotherm and re-analysed by XRPD.

[4] = after 7 days at 25° C. and 97% RH
[5] = after 7 days at 40° C. and 75% RH

Row | EC50 [1] [nM] | HPLC purity after storage [2, 4] [% AUC] | change by XRPD after storage [2, 4] | HPLC purity after storage [2, 5] [% AUC] | change by XRPD after storage [2, 5] | Post-GVS analysis by XRPD ([3]; after GVS) | moisture uptake by GVS ([3]; between 0-90% RH, 25° C.) [%] | SMILES | hygroscopicity / moisture uptake by GVS (in words) ([3]; summary statement)
1 | ≤ 250 | – | – | – | – | – | – | COc1ccc([C@H]2CC[C@H](CN(c3cccc(-c4cnn(C5CC5)c4)c3)C(=O)[C@H]3CC[C@H](O)CC3)CC2)cc1C [Compound 1, trans-N-(3-(1-cyclopropyl-1H-pyrazol-4-yl)phenyl)-4-hydroxy-N-((trans-4-(4-methoxy-3-methylphenyl)cyclohexyl)methyl)cyclohexanecarboxamide] | –
2 | – | 99.40 | unchanged; also recorded: no changes | 99.48 | unchanged; also recorded: no changes | no change | 0.02 | COc1ccc([C@H]2CC[C@H](CN(c3cccc(-c4cnn(C5CC5)c4)c3)C(=O)[C@H]3CC[C@H](O)CC3)CC2)cc1C [Form 1 of Compound 1, trans-N-(3-(1-cyclopropyl-1H-pyrazol-4-yl)phenyl)-4-hydroxy-N-((trans-4-(4-methoxy-3-methylphenyl)cyclohexyl)methyl)cyclohexanecarboxamide] | non-hygroscopic; also recorded: No significant moisture uptake
